The source of these data is ChEMBL document CHEMBL1201862, “PubChem BioAssay data set” (2004).

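Protocol summary: plate cells (96-well), add compound at 5 concentrations, incubate 48 h, interpolate endpoints linearly. GI50 is the concentration that inhibits growth by half.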 The source made the active and inactive calls. No stated cut-off is given here; in the data, active = GI50 up to about 1.1 µM and inactive = higher.

Test in all cases: NCI tumour cell line growth inhibition, 48 h
The subject of test [1] is SN12C.
The subject of test [2] is SF-539.
The test system of test [3] is 786-0.
The test system of test [4] is SK-MEL-2.
Test [5] deals with K562.
Test [6] concerns A549.
Test [7] has as its system SF-295.
Test [8] deals with NCI-H522.
Test [9] deals with SNB-75.
Test [10] has as its system HL-60.
Test [11] has as its system A498.
In test [12] the test system is CCRF-CEM.
The subject of test [13] is TK-10.
Test [14] concerns SR.
The subject of test [15] is M14.

On to `COC(=O)C(=O)C(C(=O)C(=O)Nc1ccccc1C(N)=O)c1nc2ccc([N+](=O)[O-])cc2nc1O` (stereo unspecified), for which the GI50 in [1], in [2], in test [3], in test [4], in test [5] and in test [6] was > 100 µM (inactive) throughout. The GI50 in [7], in test [8], in test [9], in test [10], in test [11] and in test [12] was > 100 µM (inactive) throughout. Moreover, the GI50 in [13], in test [14] and in [15] was > 100 µM (inactive) in each case.
For the molecule `O=C(N/N=C/c1ccccc1O)c1cccc([N+](=O)[O-])c1`, the GI50 is 21.1 µM (inactive) in [1]; 13.8 µM (inactive) in [2]; 6.47 µM (inactive) in [3]; 21.8 µM (inactive) in test [4]; 22.4 µM (inactive) in test [5]; 31 µM (inactive) in test [6]. Moreover, the GI50 in [7] is 19.7 µM (inactive); in test [8], 32.7 µM (inactive); in test [10], 3.01 µM (inactive); in [11] it was 76.7 µM (inactive); in test [12] it was 3.03 µM (inactive); in test [13], 30.9 µM (inactive). The GI50 is 3.78 µM (inactive) in [14] and 14.7 µM (inactive) in test [15].
In the case of `COC(=O)CCC(=O)CC1CC(=O)C2CCCN12` (stereo unspecified), the GI50 in test [1], in [2], in test [3], in test [4], in test [5] and in test [6] was > 100 µM (inactive) throughout. Besides, the GI50 in test [7], in test [8], in test [9], in test [10], in [11] and in [12] was > 100 µM (inactive) in each case. The GI50 in test [13], in test [14] and in [15] was > 100 µM (inactive) in each case.
For `Cc1c2ccncc2c(C)c2c1[nH]c1ccc(OC(C)C)cc12`, the GI50 is 1.06 µM (active) in [1]; 1.82 µM (inactive) in test [2]; 1.19 µM (inactive) in test [3]; 1.58 µM (inactive) in test [4]; 1.13 µM (inactive) in test [5]; 1.52 µM (inactive) in test [6]. The GI50 in test [7] is 1.36 µM (inactive); in test [8] it was 1.63 µM (inactive); in [9], 1.83 µM (inactive); in [10], 1.84 µM (inactive); in test [11] it was 1.47 µM (inactive); in [12] it was 1.15 µM (inactive). Besides, the GI50 in [13] is 1.91 µM (inactive); in test [14], 0.668 µM (active); in test [15], 1.6 µM (inactive).
As for `CC1(C)CC(=O)C(CC2C(=O)CCCC2=O)C(=O)C1`, the GI50 in test [1], in test [2], in [3], in [4], in test [5] and in test [6] was > 100 µM (inactive) in each case. Also, the GI50 in [7], in test [8], in test [9], in [10], in test [11] and in test [12] was > 100 µM (inactive) throughout. Besides, the GI50 in [13], in [14] and in [15] was > 100 µM (inactive) each time.
Take `COc1cccc([C@@]2(O)c3c(ccc(O)c3OC)[C@H]2OC)c1OC`: the GI50 is 62.1 µM (inactive) in test [1]; 14.4 µM (inactive) in test [3]; 37.8 µM (inactive) in test [4]; 44.5 µM (inactive) in [5]; 37 µM (inactive) in test [6]; 57.8 µM (inactive) in test [7]. Besides, the GI50 was 16.3 µM (inactive) in [8]; 47.6 µM (inactive) in [9]; 19.3 µM (inactive) in test [10]; 58.1 µM (inactive) in [11]; 45.4 µM (inactive) in [12]; 31.1 µM (inactive) in test [13]. Further, the GI50 was 38.5 µM (inactive) in [14] and 30.5 µM (inactive) in test [15].
Consider `CCCC1=C(CC)C(C(=O)Nc2c(C)cccc2C)=NC(S)N1` (stereo unspecified), for which the GI50 in test [1], in [2], in test [3], in test [4], in [5] and in [6] was > 100 µM (inactive) each time. Further, the GI50 was > 100 µM (inactive) in test [7]; > 100 µM (inactive) in [8]; 59 µM (inactive) in [9]; > 100 µM (inactive) in test [10]; > 100 µM (inactive) in [11]; > 100 µM (inactive) in test [12]. Moreover, the GI50 in test [13], in test [14] and in test [15] was > 100 µM (inactive) each time.
As for `Cc1ccc(S(=O)(=O)NC(=O)C2(Br)S(=O)(=O)OCCOS2(=O)=O)cc1`, the GI50 in test [1], in [2], in test [3], in test [4], in [5] and in test [6] was > 100 µM (inactive) each time. The GI50 in [8], in test [9], in [10], in [11], in test [12] and in [13] was > 100 µM (inactive) each time. Moreover, the GI50 in test [14] and in test [15] was > 100 µM (inactive) each time.
For `CCCN1C(=O)CNC(=O)c2[nH]cnc21`, the GI50 in test [1], in test [2], in test [3], in test [4], in test [5] and in test [6] was > 100 µM (inactive) each time. Moreover, the GI50 in test [7], in test [8], in test [9], in test [10], in test [11] and in test [12] was > 100 µM (inactive) in each case. Moreover, the GI50 in [13], in test [14] and in test [15] was > 100 µM (inactive) in each case.
`Cc1ccc(C)c(NC(=O)CC2SC(Nc3ccccc3Cl)=NC2=O)c1` (stereo unspecified): the GI50 in test [1] was > 100 µM (inactive); in [2], > 100 µM (inactive); in [3] it was > 100 µM (inactive); in test [4] it was > 100 µM (inactive); in test [6], 65.3 µM (inactive); in [7], 72.6 µM (inactive). In addition, the GI50 in test [8] is 27 µM (inactive); in test [9], 55.7 µM (inactive); in test [10], 32.3 µM (inactive); in test [11] it was > 100 µM (inactive); in test [12] it was 22.1 µM (inactive); in test [13] it was > 100 µM (inactive). Besides, the GI50 is 8.61 µM (inactive) in [14] and > 100 µM (inactive) in test [15].
